Assay results: patent US10577378B2, “EIF4A-inhibiting compounds and methods related thereto” (eFFECTOR Therapeutics, Inc., priority 2015, dated 2020)

Test system: MDA-MB-231 human breast cancer cells
Assay: Cell proliferation assay (CellTiter-Glo, 72 hours treatment)
Type: cell-based
Conditions: Homo sapiens; MDA-MB-231 cells, 72 hours at 37° C., CellTiter-Glo; read-out: MDA-MB-231 cell proliferation assay (IC50)
How it was run: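 MDA-MB-231 cells seeded at 2,500 cells/well, treated next day with compound or DMSO vehicle for 72 h at 37 °C. Proliferation read by CellTiter-Glo; IC50 from sigmoidal non-linear regression, binned as +++ (<100 nM), ++ (100–1000 nM), + (>1000 nM).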

First: COc1nc(C#N)cc2c1[C@]1(O)[C@H](O)[C@H](CNCC(F)F)[C@@H](c3ccccc3)[C@]1(c1ccc(C#N)cc1)O2 (racemic) [197F, Rac-(5aR,6S,7S,8R,8aS)-5a-(4-cyanophenyl)-7-(((2,2-difluoroethyl)amino)methyl)-8,8a-dihydroxy-1-methoxy-6-phenyl-5a,7,8,8a-tetrahydro-6H-cyclopenta[4,5]furo[3,2-c]pyridine-3-carbonitrile]
Second: COc1nc(C#N)cc2c1[C@]1(O)[C@H](O)[C@H](CN3CCC(F)CC3)[C@@H](c3ccccc3)[C@]1(c1ccc(C#N)cc1)O2 (racemic) [156Fc, Rac-(5aR,6S,7S,8R,8aS)-5a-(4-cyanophenyl)-7-((4-fluoropiperidin-1-yl)methyl)-8,8a-dihydroxy-1-methoxy-6-phenyl-5a,7,8,8a-tetrahydro-6H-cyclopenta[4,5]furo[3,2-c]pyridine-3-carbonitrile]
The IC50 of the first is higher: 100 to 1000 nM for the first, under 100 nM for the second. The second is the more potent here.

Compared with `O[C@]12c3ncc(Cl)cc3O[C@@]1(c1ccc(Br)cc1)[C@H](c1ccccc1)C[C@@]21CCO1` (racemic) [38F, Rac-(5aR,6S,8R,8aS)-5a-(4-bromophenyl)-3-chloro-6-phenyl-6,7-dihydrospiro[cyclopenta[4,5]furo[3,2-b]pyridine-8,2′-oxetan]-8a(5aH)-ol], `OC[C@H]1C[C@@H](c2ccccc2)[C@]2(c3ccc(Br)cc3)Oc3cc(Cl)cnc3[C@]12O` (racemic) [162F, Rac-(5aR,6S,8R,8aR)-5a-(4-bromophenyl)-3-chloro-8-(hydroxymethyl)-6-phenyl-5a,6,7,8-tetrahydro-8aH-cyclopenta[4,5]furo[3,2-b]pyridin-8a-ol] is lower in IC50: over 1000 nM for the first, 100 to 1000 nM for the second.

`N#Cc1ccc([C@@]23Oc4cc(Cl)cnc4[C@]2(O)[C@H](O)[C@H](c2ncco2)[C@H]3c2ccccc2)cc1` (racemic) [26F, Rac-4-((5aR,6S,7R,8R,8aS)-3-chloro-8,8a-dihydroxy-7-(oxazol-2-yl)-6-phenyl-6,7,8,8a-tetrahydro-5aH-cyclopenta[4,5]furo[3,2-b]pyridin-5a-yl)benzonitrile] and `N#Cc1ccc([C@@]23Oc4cc(Cl)cnc4[C@]2(O)[C@@H]2OC(=O)N[C@@H]2[C@H]3c2ccccc2)cc1` (racemic) [54F, Rac-4-((3aR,3bS,8aR,9R,9aR)-6-chloro-3b-hydroxy-2-oxo-9-phenyl-1,2,3a,3b,9,9a-hexahydro-8aH-oxazolo[4″,5″:4′,5′]cyclopenta[1′,2′:4,5]furo[3,2-b]pyridin-8a-yl)benzonitrile] fall in the same range of IC50: 100 to 1000 nM for the first, 100 to 1000 nM for the second.

First: CC1(C)COCCN1C[C@H]1[C@@H](O)[C@@]2(O)c3ncc(Cl)cc3O[C@@]2(c2ccc(Br)cc2)[C@@H]1c1ccccc1 (racemic) [214F, Rac-(5aR,6S,7S,8R,8aS)-5a-(4-bromophenyl)-3-chloro-7-((3,3-dimethylmorpholino)methyl)-6-phenyl-5a,6,7,8-tetrahydro-8aH-cyclopenta[4,5]furo[3,2-b]pyridine-8,8a-diol]
Second: O[C@@H]1C(F)(F)[C@@H](c2ccccc2)[C@]2(c3ccc(Br)cc3)Oc3cc(Cl)cnc3[C@]12O (racemic) [91F, Rac-(5aR,6S,8S,8aS)-5a-(4-bromophenyl)-3-chloro-7,7-difluoro-6-phenyl-5a,6,7,8-tetrahydro-8aH-cyclopenta[4,5]furo[3,2-b]pyridine-8,8a-diol]
The IC50 of the first is lower: 100 to 1000 nM for the first, over 1000 nM for the second. The first is the more potent here.

`COc1nc(Cl)cc2c1[C@]1(O)[C@H](O)[C@H](C(=O)N(C)C)[C@@H](c3ccccc3)[C@]1(c1ccc(Br)cc1)O2` (racemic) [137F, Rac-(5aR,6S,7R,8R,8aS)-5a-(4-bromophenyl)-3-chloro-8,8a-dihydroxy-1-methoxy-N,N-dimethyl-6-phenyl-5a,7,8,8a-tetrahydro-6H-cyclopenta[4,5]furo[3,2-c]pyridine-7-carboxamide] and `COc1cc2c(c(OC)n1)[C@]1(O)[C@H](O)[C@H](C(=O)N(C)C)[C@@H](c3ccccc3)[C@]1(c1ccc(Br)cc1)O2` (racemic) [229F, rac-(5aR,6S,7R,8R,8aS)-5a-(4-bromophenyl)-8,8a-dihydroxy-1,3-dimethoxy-N,N-dimethyl-6-phenyl-5a,7,8,8a-tetrahydro-6H-cyclopenta[4,5]furo[3,2-c]pyridine-7-carboxamide] cannot be ordered by IC50: under 100 nM for the first, under 100 nM for the second.

`CCN(C)C[C@H]1[C@@H](O)[C@@]2(O)c3c(OC)cncc3O[C@@]2(c2ccc(C#N)cc2)[C@@H]1c1ccccc1` (racemic) [74F, Rac-4-((4bS,5R,6S,7S,7aR)-6-((ethyl(methyl)amino)methyl)-4b,5-dihydroxy-4-methoxy-7-phenyl-4b,5,6,7-tetrahydro-7aH-cyclopenta[4,5]furo[2,3-c]pyridin-7a-yl)benzonitrile] and `COc1cncc2c1[C@]1(O)[C@H](O)[C@H](CN(C)C)[C@@H](c3ccccc3)[C@]1(c1ccc(Cl)cc1)O2` (single isomer, unassigned) [272F] cannot be ordered by IC50: under 100 nM for the first, under 100 nM for the second.

`COc1nc(Cl)cc2c1[C@]1(O)[C@H](O)[C@H](C(=O)N3CCC34CC4(F)F)[C@@H](c3ccccc3)[C@]1(c1ccc(Br)cc1)O2` (mixture of isomers) [219F, Rac-((5aR,6S,7R,8R,8aS)-5a-(4-bromophenyl)-3-chloro-8,8a-dihydroxy-1-methoxy-6-phenyl-5a,7,8,8a-tetrahydro-6H-cyclopenta[4,5]furo[3,2-c]pyridin-7-yl)(1,1-difluoro-4-azaspiro[2.3]hexan-4-yl)methanone] and `COc1nc(Cl)cc2c1[C@]1(O)[C@H](O)[C@H](CN(C)C)[C@@H](c3ccccc3)[C@]1(c1ccc(Cl)cc1)O2` (racemic) [142F, Rac-(5aR,6S,7S,8R,8aS)-3-chloro-5a-(4-chlorophenyl)-7-((dimethylamino)methyl)-1-methoxy-6-phenyl-5a,6,7,8-tetrahydro-8aH-cyclopenta[4,5]furo[3,2-c]pyridine-8,8a-diol] cannot be ordered by IC50: under 100 nM for the first, under 100 nM for the second.

Compared with `COc1cncc2c1[C@]1(O)[C@H](O)C(CN3CCN(C)CC3)[C@@H](c3ccccc3)[C@]1(c1ccc(C(F)(F)F)cc1)O2` (single isomer, unassigned) [284F], `COc1cncc2c1[C@]1(O)[C@@H](CN3CCOCC3)[C@H](CO)[C@@H](c3ccccc3)[C@]1(c1ccc(C#N)cc1)O2` (racemic) [180F, Rac-4-((4bR,5R,6R,7S,7aR)-4b-hydroxy-6-(hydroxymethyl)-4-methoxy-5-(morpholino-methyl)-7-phenyl-4b,5,6,7-tetrahydro-7aH-cyclopenta[4,5]furo[2,3-c]pyridin-7a-yl)benzonitrile] is lower in IC50: 100 to 1000 nM for the first, under 100 nM for the second. The second is the more potent here.

First: N#Cc1ccc([C@@]23Oc4cc(Cl)cnc4[C@]2(O)[C@H](O)C[C@H]3c2ccccc2)cc1 (racemic) [128F, Rac-4-((5aR,6S,8R,8aS)-3-chloro-8,8a-dihydroxy-6-phenyl-6,7,8,8a-tetrahydro-5aH-cyclopenta[4,5]furo[3,2-b]pyridin-5a-yl)benzonitrile]
Second: COc1cncc2c1[C@]1(O)[C@@H](CN)C[C@@H](c3ccccc3)[C@]1(c1ccc(C#N)cc1)O2 (racemic) [173F, Rac-4-((4bR,5R,7S,7aR)-5-(aminomethyl)-4b-hydroxy-4-methoxy-7-phenyl-4b,5,6,7-tetrahydro-7aH-cyclopenta[4,5]furo[2,3-c]pyridin-7a-yl)benzonitrile]
The IC50 of the first is higher: 100 to 1000 nM for the first, under 100 nM for the second. The second is the more potent here.

`COc1cncc2c1[C@]1(O)[C@@H]3OC(=O)C[C@@H]3[C@@H](c3ccccc3)[C@]1(c1ccc(Br)cc1)O2` (racemic) [275F, Rac-(3aR,4S,4aR,9bS,9cR)-4a-(4-bromophenyl)-9b-hydroxy-9-methoxy-4-phenyl-3,3a,4,4a,9b,9c-hexahydro-2H-furo[3″,2″:4′,5′]cyclopenta[1′,2′:4,5]furo[2,3-c]pyridin-2-one] and `COc1cncc2c1[C@]1(O)[C@H](O)[C@H](C(=O)N(C)CC(C)(C)O)[C@@H](c3ccccc3)[C@]1(c1ccc(Br)cc1)O2` (racemic) [251F, Rac-(4bS,5R,6R,7S,7aR)-7a-(4-bromophenyl)-4b,5-dihydroxy-N-(2-hydroxy-2-methylpropyl)-4-methoxy-N-methyl-7-phenyl-4b,6,7,7a-tetrahydro-5H-cyclopenta[4,5]furo[2,3-c]pyridine-6-carboxamide] cannot be ordered by IC50: under 100 nM for the first, under 100 nM for the second.

`CN(C)C(=O)[C@H]1[C@@H](O)[C@@]2(O)c3n[nH]cc3O[C@@]2(c2ccc(C#N)cc2)[C@@H]1c1ccccc1` (racemic) [100F, rac-(4aR,5S,6R,7R,7aS)-4a-(4-cyanophenyl)-7,7a-dihydroxy-N,N-dimethyl-5-phenyl-2,4a,5,6,7,7a-hexahydrocyclopenta[4,5]furo[3,2-c]pyrazole-6-carboxamide] and `COC(=O)[C@H]1[C@@H](O)[C@@]2(O)c3nn(C)cc3O[C@@]2(c2ccc(C#N)cc2)[C@@H]1c1ccccc1` (racemic) [21F, Rac-methyl (4aR,5S,6R,7R,7aS)-4a-(4-cyanophenyl)-7,7a-dihydroxy-2-methyl-5-phenyl-2,4a,5,6,7,7a-hexahydrocyclopenta[4,5]furo[3,2-c]pyrazole-6-carboxylate] cannot be ordered by IC50: over 1000 nM for the first, over 1000 nM for the second.

`COc1nc(C#N)cc2c1[C@]1(O)[C@@H](CN3CCC(F)(F)CC3)[C@H](CO)[C@@H](c3ccccc3)[C@]1(c1ccc(C#N)cc1)O2` (racemic) [213F, Rac-(5aR,6S,7R,8R,8aR)-5a-(4-cyanophenyl)-8-((4,4-difluoropiperidin-1-yl)methyl)-8a-hydroxy-7-(hydroxymethyl)-1-methoxy-6-phenyl-5a,7,8,8a-tetrahydro-6H-cyclopenta[4,5]furo[3,2-c]pyridine-3-carbonitrile] and `CNc1cc2c(c(OC)n1)[C@]1(O)[C@H](O)[C@H](CN(C)C)[C@@H](c3ccccc3)[C@]1(c1ccc(C#N)cc1)O2` (racemic) [150F, Rac-4-((5aR,6S,7S,8R,8aS)-7-((dimethylamino)methyl)-8,8a-dihydroxy-1-methoxy-3-(methylamino)-6-phenyl-6,7,8,8a-tetrahydro-5aH-cyclopenta[4,5]furo[3,2-c]pyridin-5a-yl)benzonitrile] cannot be ordered by IC50: under 100 nM for the first, under 100 nM for the second.
